# Experimental data published in publication PMC8765435, “In Vitro Antimalarial Activity of Inhibitors of the Human GTPase Rac1” (Antimicrobial Agents and Chemotherapy, 2022).
# Experiments:
# [1] = test system: P. falciparum asexual parasites, chloroquine-sensitive D10 strain; test: Drug susceptibility assay (pLDH), asexual parasites, D10 strain; assay type: cell-based, Plasmodium falciparum; conditions: Plasmodium falciparum, D10, chloroquine-sensitive D10 strain; read-out: IC50, D10 strain
# Description: (§1) Chloroquine (CQ)-sensitive (D10, wild-type 3D7, or transgenic 3D7elo1-pfs16-CBG99) and CQ-resistant (W2) strains of P. falciparum were cultured as described previously ([58]), with slight modifications, as detailed in the supplemental material.
# (§2) Asexual parasite growth was determined spectrophotometrically (optical density at 650 nm [OD650]) by measuring the activity of parasite lactate dehydrogenase (pLDH), according to a modified version of the method of Makler et al. ([59]). Gametocyte viability was measured by a luminescence method described previously ([60]). Details for the two methods are reported in the supplemental material. From either the OD or ALU (arbitrary luminescence units), the percentages of viability were calculated according to the formula 100 × (treated sample signal − blank signal)/(untreated control signal − blank signal). The blank for the pLDH assay was uninfected RBCs at the same hematocrit as that of parasitized RBCs, and the blank for the luminescence assay was parasites treated with a high dose of methylene blue. […]
# The CQ-sensitive (D10) and the CQ-resistant (W2) strains were maintained at 5% hematocrit […]
# supplemented with 1% AlbuMaxII (lipid-rich bovine serum albumin) (Invitrogen), 0.01% hypoxantine (Sigma), 20mM Hepes (EuroClone), 2 mM glutamine (EuroClone). […]
# In vitro P. falciparum drug susceptibility assay […]
# plate were transferred to a plate containing 100µl of Malstat reagent (0.11% [vol/vol] Triton- […]
# dinucleotide [APAD] [Sigma-Aldrich], adjusted to pH 9 with 1 M HCl) and 25 µl of PES/NBT […]
# pLDHassay. The plate was read at a wavelength of 650 nm using a microplate reader, Synergy4 […]
# Uninfected RBC at the same HCT than parasites were used as blank. […]
# [2] = test system: 3D7 immature gametocytes; test: Gametocyte viability luminescence assay, immature gametocytes; assay type: cell-based, Plasmodium falciparum; conditions: Plasmodium falciparum, 3D7, stage II-III gametocytes, 72 h, read-out: Mean IC50 ± SD, 3D7 immature gametocytes
# Description: as §1, §2
# strain (wild type or transgenic 3D7elo1-pfs16-CBG99 strain) was cultured in similar conditions, except for 10% naturally clotted Human O+ serum instead of AlbuMaxII and human type O-positive instead of A-positive RBCs. […]
# in a standard gas mixture consisting of 1% O2, 5% CO2, 94% N2. Immature (stage II-III) and mature (stage V) gametocytes were obtained as described1. Briefly, cultures were diluted to 0.5% parasitemia at 5% HCT, and the medium was changed daily until parasites were stressed by nutrient deprivation. N-acetylglucosamine (NAG) (Sigma-Aldrich) 50 mM was then added to clear residual asexual parasites: Stage II and III gametocytes were obtained 4 days after NAG addition to the culture, while stage IV and V gametocytes were used 11 to 13 days from NAG addition. Gametocyte stages were routinely checked on Giemsa-stained smears. […]
# Drug treated gametocyte cultures were transferred to 96-well black microplates and D-luciferin (1 mM in citrate buffer 0.1 M, pH 5.5) was added at a 1:1 volume ratio. Luminescence measurements were performed after 10 min with 500 ms integration time. Gametocytes treated
# [3] = test system: HMEC-1 human microvascular endothelial cells; test: Cell cytotoxicity MTT assay; assay type: cell-based
# Description: Cytotoxicity was evaluated on human microvascular endothelial cells (HMEC-1) as detailed in the supplemental material. […] Plates were then read on a microplate reader (Synergy 4; BioTek) at a wavelength of 550 nm (reference, 650 nm). […] All tests were performed in duplicate at least three times.
# The selectivity index (SI) is the ratio between the cytotoxic IC50 value against HMEC-1 cells and the parasitic IC50 value against the D10 strain and indicates the compound selectivity for the parasite.
# Cytotoxicity was evaluated on Human Microvascular Endothelial Cells (HMEC-1) maintained
# and 2 mM L-glutamine. Cells were seeded in 96 well flat bottom tissue culture clusters (1.5x104
# cells/well), let adhere overnight and treated with serial dilutions of test compounds . […]
# [4] = test system: P. falciparum invasion of red blood cells; test: Parasite invasion assay; assay type: cell-based, Plasmodium falciparum; conditions: 2.5 μM
# Description: Invasion assays were performed as previously described ([17]). Invasion rates were calculated by subtracting the number of schizonts at the end of the assay (6 h postinvasion [hpi]) from the number of schizonts in the time zero (T0) sample, obtaining the number of merozoite-releasing schizonts. The number of new infections was normalized to the number of merozoite-releasing schizonts to obtain the parasitized erythrocyte multiplication rate (PEMR). This value was normalized to the control sample, obtaining the invasion rate value. The results are the means from three independent biological replicates, each performed in triplicate.
# [5] = test system: P. falciparum intraerythrocytic parasites; test: Parasite intraerythrocytic growth (Giemsa smears); assay type: cell-based, Plasmodium falciparum; conditions: 1.4 μM
# Description: A culture of erythrocytes freshly invaded by P. falciparum parasites was set up as previously described ([17]). Parasites were exposed to 1.4 μM EHop-016, and an untreated control was set up. Blood smears were taken at 20, 27, and 39 hpi, corresponding to late ring, trophozoite, and schizont stages, and then Giemsa stained and counted by optical microscopy in order to assess parasitemia. Pictures of the blood smears were taken with a Leica ICC50W camera. These experiments were performed in three biological replicates.
# [6] = test system: human mammary epithelial cells; design: method as in PMID 25389450, PMID 25594952; conditions: at concentrations lower than 5 μM; cited from earlier work
# [7] = design: method as in PMID 25389450, PMID 25594952; conditions: mice, orally, 25 mg/kg three times a week for 55 days; cited from earlier work
# [8] = molecular target: Rac1 (Homo sapiens, UniProt P63000); test: G-LISA Rac1 activation assay in uninfected erythrocytes; assay type: cell-based; design: endogenous in cells; host or cells: erythrocytes from whole blood of 7 donors; conditions: 2.5 μM, 2 h
# Description: Whole blood collected from 7 donors was washed in RPMI 1640 four times to remove plasma, platelets, and leukocytes. The number of erythrocytes was determined by using a cell counting chamber. Erythrocytes were incubated for 2 h at 37°C with or without 2.5 μM EHop-016 and then washed. In each sample, the Rac1 activation state was measured with the G-LISA Rac1 activation assay luminescence-based biochemical kit (Cytoskeleton). Luminescence intensity was assessed with a BioTek Synergy HT plate reader. These experiments were performed in three biological replicates.
smiles,measurement,setting,value
CCn1c2ccccc2c2cc(Nc3ccnc(NCCCN4CCOCC4)n3)ccc21 [EHop-016],IC50,[1],139 ± 16 nM
same,IC50,[2],740 ± 200 nM
same,IC50,"[3]; Homo sapiens, HMEC-1, MTT, 72 h, read-out: Mean HMEC-1 IC50 ± SD",5220 ± 1070 nM
same,SI (selectivity index),[3]; ratio IC50 against HMEC-1 cells / IC50 against D10 asexual parasites,37.8
same,RBC invasion efficiency (invasion rate vs untreated control),[4],did not reduce the RBC invasion efficiency
same,parasitemia compared to untreated control,"[5]; 20, 27 and 39 hpi","significant, time-dependent reduction in parasitemia"
same,parasite developmental process,[5]; up to 39 hpi,complete block of the developmental process
same,viability of human mammary epithelial cells,[6],does not affect the viability
same,changes in weight or behavior,[7],did not cause any significant changes in weight or behavior
same,levels of active Rac1 in noninfected erythrocytes,[8],does not inhibit Rac1 in noninfected erythrocytes
